Assay results: patent publication US20070155663A1, “Use of chemokine receptor agonists for stem cell transplantation” (priority 2003, published 2007)

Test system: FDCP-Mix cells
Assay: in vitro chemotactic assay of FDCP-Mix cells in 96-transwell chambers
Type: cell-based
Conditions: migration for 14 h
Experimental: Figure: FDCP-Mix cells were subjected to in vitro chemotactic assays. Chemotaxis was assessed in 96-transwell chambers (Neuroprobe, Cabin John, MD) by using polyvinylpyrrolidone-free polycarbonate membranes (Nucleopore, Neuroprobe) with 5-μm pores. Four hundred microliters of IMDM medium was added to the bottom of the well, and was supplemented with varying concentrations of SDF-1α or MIP-3α (R&D Systems). 100 μl of IMDM medium containing 50.000 FDCP-Mix cells were added to the upper wells of the chemotaxis chamber. Additionally 100 μl of medium either with no supplement or supplemented with MIP-3α was added to the upper well. […] Simultaneously FDCP-Mix progenitor cells were coincubated with MIP-3α in concentrations of 10 to 1000 ng/ml medium.

Q: For “MIP-3α: Macrophage Inflammatory Protein - 3α, CCR6 ligand (R&D Systems)”, which “Chemotactic migration of FDCP-Mix progenitor cells” value (MIP-3a in the bottom well, 10 to 1000 ng/ml medium) is on record?
A: does not induce chemotactic migration

Q: What about the “Sensitivity of FDCP-Mix cells to migrate to SDF-1α” value (SDF-1a 10 ng/ml in bottom well, cells coincubated with agonist (MIP-3α 10 to 1000 ng/ml medium)) of the same substance?
A: does increase the sensitivity
